Laboratory results from patent publication US12594349B2, “Compositions and methods for the targeting of PCSK9” (Scribe Therapeutics Inc., priority 2022, dated 2026).

System: human PCSK9 locus
Assay: Secreted PCSK9 by ELISA in Huh7 cells transfected with mRNA and gRNA
Assay type: cell-based
Conditions: for Secreted PCSK9 / Percent reduction in PCSK9 secretion / Average percent reduction in PCSK9 secretion: Huh7 cells; for Secreted PCSK9: 6 days post-transfection, normalized to total cell count; for Percent reduction in PCSK9 secretion / Average percent reduction in PCSK9 secretion: LTRP5-ADD-ZIM3 mRNA; for Percent reduction in PCSK9 secretion: day 6, relative to non-targeting gRNA control; for Average percent reduction in PCSK9 secretion: day 6, averaged from the two doses
Procedure: To assess PCSK9 secretion, seeded Huh7 cells were transfected with mRNA encoding a catalytically-active CasX 676, dXR1, or LTRP5-ADD-ZIM3 and a gRNA with scaffold 316 and spacer targeting either the B2M or PCSK9 locus. Media supernatant was harvested at 6, 18, 36, and 87 days post-transfection to assess level of PCSK9 secretion by ELISA. Levels of PCSK9 secretion were normalized to total cell count. As an additional control, PCSK9 secretion was also measured in the media supernatant harvested from wells containing untreated, naïve cells.
The following three human hepatocyte cancer cell lines were used in this experiment: HepG2 cells, Hep3B cells, and Huh7 cells. ˜15,000 cells of each cell line were seeded per well; the next day, seeded cells were transfected with mRNA encoding a catalytically-active CasX 676, dXR1, or LTRP5-ADD-ZIM3 and a gRNA with scaffold 316 and spacer targeting either the B2M or PCSK9 locus (see Table 23 for specific spacers and sequences). Media supernatant was harvested at 4 days post-transfection to assess level of PCSK9 secretion by ELISA, and levels of PCSK9 secretion were normalized to total cell count and illustrated in FIGS. 11A-11C. Culturing of treated Huh7 cells continued, and media supernatant was harvested at 14 and 27 days post-transfection for measuring PCSK9 secretion by ELISA. As an additional experimental control, PCSK9 secretion was also measured in the media supernatant harvested from wells containing untreated, naïve cells.
To assess PCSK9 secretion, seeded Huh7 cells were co-transfected with mRNA encoding for LTRP5-ADD-ZIM3 and a gRNA with scaffold 316 and spacer targeting the PCSK9 locus using Lipofectamine™ 3000. Two doses of total RNA input at a 2:1 mass ratio of mRNA to gRNA were used for screening: 50 ng mRNA:25 ng gRNA and 25 ng mRNA:12.5 ng gRNA. Media supernatant was harvested at 6 days post-transfection to assess level of PCSK9 secretion by ELISA (Table 74). Levels of PCSK9 secretion were normalized to total cell count. As an additional control, PCSK9 secretion was also measured in the media supernatant harvested from cells transfected with mRNA encoding for mScarlet.

[1] = LTRP5-ADD-ZIM3 mRNA + gRNA scaffold 316, 25 ng mRNA:12.5 ng gRNA
[2] = LTRP5-ADD-ZIM3 mRNA + gRNA scaffold 316, 50 ng mRNA:25 ng gRNA

Row | Substance | Secreted PCSK9 [1] [ng/mL] | Secreted PCSK9 [2] [ng/mL] | Percent reduction in PCSK9 secretion (25 ng mRNA:12.5 ng gRNA) [%] | Percent reduction in PCSK9 secretion (50 ng mRNA:25 ng gRNA) [%] | Average percent reduction in PCSK9 secretion [%] | secreted PCSK9 repression compared with spacer 6.1 paired with CasX 676 (Huh7, LTRP5-ADD-ZIM3 mRNA + gRNA scaffold 316, through day 36)
1 | TG-06-143 (guide GAAUCAAUCCUACUGUGGAC; listed as RNA, chemistry not given here) | 22.33 | 38.69 | 68.66 | 52.97 | 60.81 | 
2 | TG-06-144 (guide GUGGGCAGCGAGGAGUCCAC; listed as RNA, chemistry not given here) | 29 | 23.42 | 59.29 | 71.53 | 65.41 | 
3 | TG-06-145 (guide UGGGUCCACCUUGUCUCCUG; listed as RNA, chemistry not given here) | 18.54 | 15.8 | 73.98 | 80.8 | 77.39 | 
4 | TG-06-146 (guide GAAGUCUCACUGGUCAGCAG; listed as RNA, chemistry not given here) | 20.34 | 40.84 | 71.45 | 50.36 | 60.9 | 
5 | TG-06-147 (guide GUGUUUCCUGGGUCCACCUU; listed as RNA, chemistry not given here) | 37.43 | 53.6 | 47.46 | 34.85 | 41.15 | 
6 | TG-06-148 (guide GCCGGGCCCACCUUUUCAGU; listed as RNA, chemistry not given here) | 44.77 | 71.46 | 37.16 | 13.15 | 25.15 | 
7 | TG-06-149 (guide AGCCCAGUUAGGAUUUGGGA; listed as RNA, chemistry not given here) | 38.33 | 21.18 | 46.21 | 74.26 | 60.23 | 
8 | TG-06-150 (guide UCCCUCUGCGCGUAAUCUGA; listed as RNA, chemistry not given here) | 39.59 | 18.33 | 44.42 | 77.73 | 61.08 | 
9 | TG-06-151 (guide CUCUGCGCGUAAUCUGACGC; listed as RNA, chemistry not given here) | 66.42 | 53.44 | 6.77 | 35.05 | 20.91 | 
10 | TG-06-152 (guide GCCUCGCCCUCCCCAAACAG; listed as RNA, chemistry not given here) | 57.43 | 36.95 | 19.39 | 55.09 | 37.24 | 
11 | TG-06-153 (guide GUUAAUGUUUAAUCAGAUAG; listed as RNA, chemistry not given here) | 86.58 | 73.23 | 21.52 | 10.99 | 5.27 | 
12 | TG-06-155 (guide GCAGCGACGUCGAGGCGCUC; listed as RNA, chemistry not given here) | 56.36 | 29.45 | 20.89 | 64.21 | 42.55 | 
13 | TG-06-158 (guide GGAGCAGGGCGCGUGAAGGG; listed as RNA, chemistry not given here) | 31.72 | 9.39 | 55.48 | 88.59 | 72.03 | 
14 | TG-06-159 (guide GCGCGCCCCUUCACGCGCCC; listed as RNA, chemistry not given here) | 80.84 | 53.15 | 13.47 | 35.4 | 10.97 | 
15 | TG-06-160 (guide CGCGCCCUGCUCCUGAACUU; listed as RNA, chemistry not given here) | 48.67 | 20.63 | 31.69 | 74.93 | 53.31 | 
16 | TG-06-161 (guide GCUCCUGCACAGUCCUCCCC; listed as RNA, chemistry not given here) | 53.16 | 29.55 | 25.38 | 64.08 | 44.73 | 
17 | TG-06-168 (guide GUGGGAAGGUUCGCGGGGUU; listed as RNA, chemistry not given here) | 50.96 | 19.1 | 28.47 | 76.78 | 52.62 | 
18 | TG-06-169 (guide CGGGGUUGGGAGACCCGGAG; listed as RNA, chemistry not given here) | 62.55 | 66.39 | 12.2 | 19.3 | 15.75 | 
19 | TG-06-170 (guide UCGGCCUCCGGGUCUCCCAA; listed as RNA, chemistry not given here) | 72.96 | 64.19 | 2.41 | 21.98 | 9.79 | 
20 | TG-06-171 (guide CAGUACGUUCCAGGCAUUCA; listed as RNA, chemistry not given here) | 55.95 | 52.41 | 21.46 | 36.3 | 28.88 | 
21 | TG-06-172 (guide GCUGAAACAGAUGGAAUACU; listed as RNA, chemistry not given here) | 59.31 | 44.44 | 16.75 | 45.99 | 31.37 | 
22 | TG-06-342 (guide AAUUACAGGCAACAGGAAGG; listed as RNA, chemistry not given here) |  |  | 5.6 |  |  | 
23 | TG-06-344 (guide CAGUUUCUGCCUCGCCGCGG; listed as RNA, chemistry not given here) |  |  |  | 0.01 |  | 
24 | TG-06-352 (guide UCCCUCACCAAUUACCCCUC; listed as RNA, chemistry not given here) |  |  |  |  |  | effective repression
